Measurements as given in ChEMBL document CHEMBL4483862, “Open-source discovery of chemical leads for next-generation chemoprotective antimalarials” (2018).

Test system: Plasmodium berghei
Test: Luciferase/luciferin-expressing antifolate-resistant parasites were used to infect a culture of HepG2 cells that were pre-incubated with compounds. Infected hepatocytes emit light due to the luciferase reaction. Assay results are presented as the percent inhibition of light emission compared to control. […]
Type: functional
Settings: sporozoite; for IC50: read-out: LUCIFERASE INFECTION ASSAY - IC50; for IC90: read-out: LUCIFERASE INFECTION ASSAY - IC90

| SMILES | IC50 [µM] | IC90 [µM] |
| --- | --- | --- |
| Oc1ccccc1Nc1nc(NCc2ccccc2)c2ccccc2n1 | 2.58 | > 8.71 |
| Cc1onc(-c2c(F)cccc2Cl)c1C(=O)NC1CCSC1=O (centres undefined) | > 9.3 | > 9.3 |
| CCN(CC)C(=O)CSc1nnc2nnc3cc(C)ccc3n12 | > 9.99 | > 9.99 |
| c1ccc(CN2CCC(Nc3ncnc4sccc34)CC2)cc1 | 8.87 | > 10 |
| NC(c1csc(Nc2nccc(C(F)(F)F)n2)n1)C1CCCCC1 (centres undefined) | 2.8 | 3.66 |
| C=CCNc1nc(Nc2ccc(OC)c(OC)c2)c2sc(-c3ccccc3)cc2n1 | 3.61 | > 7.88 |
| CCNC(=O)C1CCCN(C(=O)c2c(-c3ccccc3)noc2C)CC1 (centres undefined) | > 9.28 | > 9.28 |
| c1csc(-c2cnc3sc(NCC4CCOCC4)nn23)c1 | > 10.3 | > 10.3 |
| Nc1nnc(SCc2c(F)cccc2Cl)[nH]1 | > 12.8 | > 12.8 |
| O=C(NC(=O)N1CCc2c([nH]c3ccccc23)C1C(F)(F)F)c1ccccc1 (centres undefined) | > 8.52 | > 8.52 |
| CN(C)c1cccc(-c2cnc3sc(NCc4ccncc4)nn23)c1 | > 9.42 | > 9.42 |
| COc1ccc(-c2cnc3sc(NCCc4ccc(S(N)(=O)=O)cc4)nn23)cn1 | > 7.67 | > 7.67 |
| N#CCS(=O)(=O)c1ccc(OC(F)(F)F)cc1 | > 12.4 | > 12.4 |
| CN(C)c1cccc(-c2cnc3sc(NCCc4ccncc4)nn23)c1 | > 9.05 | > 9.05 |
| FC(F)(F)c1cccc(-c2nc3ccnc(Nc4ccccc4)c3[nH]2)c1 | 3.2 | > 10 |
| CC1=CC(=O)N(c2cc(Cl)cc(Cl)c2)C1=O | > 12.9 | > 12.9 |
| CN(C)c1ccccc1-c1cnc2sc(NC3CCC(O)CC3)nn12 (centres undefined) | 8.17 | > 9.23 |
| CC(C)OC(=O)Nc1cc(Cl)cc(Cl)c1 | > 13.3 | > 13.3 |
| O=C(Nc1cc(Cl)cc(Cl)c1)N1CCC(n2cccc2)CC1 | > 9.76 | > 9.76 |
| CC(=O)Nc1ccc(-c2cnc3ccc(-c4ccoc4)nn23)cc1 | 3.52 | 4.31 |
| Cc1c2cnn(C)c(=O)c2c(C)n1-c1ccccc1 | > 13 | > 13 |
| CSc1ccc(OC(=O)Nc2ccccc2)cc1 | > 12.7 | > 12.7 |
| CCOC(=O)N1CCN(C2c3ccccc3-c3ccccc32)CC1 | 8.79 | > 10.2 |

| SMILES | IC50 [µM] | IC90 [µM] |
| --- | --- | --- |
| O=C(CN1CCCCC1)Nc1c(F)cccc1F | > 13 | > 13 |
| COc1ccc(CO)c(Cl)c1OC | > 16.3 | > 16.3 |
| CN(C)CCNC(=O)c1ccc(-c2cc(-c3cc4ccccc4s3)cnc2N)cc1 | > 7.92 | > 7.92 |
| CCOc1nc(N)c(C#N)c(-c2ccc(C(F)(F)F)cc2)c1C#N | 4.53 | 8.21 |
| CSc1sc(C(=O)Sc2ccccc2)cc1S(=O)(=O)C(C)C | > 8.86 | > 8.86 |
| O=C1NCCN1CCNc1nn2c(-c3cccc(OC(F)(F)F)c3)cnc2s1 | > 8 | > 8 |
| Cc1ccc(S(=O)(=O)NN=c2nc[nH]c3sccc23)cc1 | 2.59 | 5.7 |
| Cc1c(C(=O)Nc2cccc(Cl)c2)sc2nc(C(F)(F)F)nn12 | > 9.15 | > 9.15 |
| CNc1nc(NCc2cccc(OC)c2)c2sc(-c3ccccc3)cc2n1 | > 8.77 | > 8.77 |
| NC(c1csc(Nc2cc(NCc3ccco3)ncn2)n1)C1CCCCC1 (centres undefined) | > 8.58 | > 8.58 |
| COc1cc(-c2cncc(Nc3cccc(C(F)(F)F)c3)n2)cc(OC)c1OC | 4.6 | > 8.14 |
| COc1ccc(Nc2nccc3nc(-c4cccc(OC(F)(F)F)c4)[nH]c23)cc1OC | 3.54 | > 10 |
| CCN(CC)CCNC(=O)c1ccc(Nc2ccn3nc(-c4ccc(Cl)cc4)cc3n2)cc1 | > 7.13 | > 7.13 |
| c1ccc(CCNc2nn3c(-c4ccsc4)cnc3s2)nc1 | > 10.1 | > 10.1 |
| COc1ccc(-c2cnc3sc(NCCc4ccncc4)nn23)cn1 | > 9.36 | > 9.36 |
| O=C(Nc1ccccc1)c1ccc(C#Cc2ccccc2)o1 | > 11.5 | > 11.5 |
| CSc1sc(Cl)c(-c2ccc(Cl)cc2)c1C#N | > 11 | > 11 |
| CC(=O)Nc1cnc(-c2ccccc2N(C)C)cn1 | > 12.9 | > 12.9 |
| COc1ccc(-c2cncc(-c3ccc(N)cc3)n2)cc1 | 7.82 | 11.7 |
| COc1cc(NS(=O)(=O)c2ccc(C)cc2)c(OC)cc1Cl | 2.01 | 3.66 |
| CC(=O)Nc1ccc(-c2cnc3ccc(-c4cccnc4)nn23)cc1 | 0.572 | 1.22 |
| Cc1ccc(Oc2cccc(F)c2C#N)cc1 | > 14.5 | > 14.5 |
| COc1ccccc1N1CCN(S(=O)(=O)c2cccc(Cl)c2)CC1 | > 9 | > 9 |

| SMILES | IC50 [µM] | IC90 [µM] |
| --- | --- | --- |
| Clc1ccc(-c2cnc3sc(NCCc4ccncc4)nn23)cc1 | > 9.27 | > 9.27 |
| N#Cc1ccc(N2CCCN(C(=O)Nc3cc(Cl)cc(Cl)c3)CC2)nc1 | > 8.46 | > 8.46 |
| COc1cccc(-c2ccc3ncc(-c4cccc(C(=O)NCCN(C)C)c4)n3n2)c1 | 1.69 | 4.07 |
| FC(F)(F)Oc1cccc(-c2nc3ccnc(NCCc4ccncc4)c3[nH]2)c1 | 3.37 | > 10 |
| O=C(CCN1CCOCC1)Nc1cc(C(F)(F)F)ccc1Cl | > 9.8 | > 9.8 |
| CN(C)CCN1CCN(c2cccc(-c3ccc(-c4ccccc4)cc3)n2)CC1 | 5.35 | > 8.54 |
| CN(C)c1cccc(CNc2nccc3nc(-c4ccncc4)[nH]c23)c1 | > 10 | > 10 |
| N#Cc1ccc(NC(=O)Nc2ccc(C#N)cc2)cc1 | 3.52 | 4.08 |
| Cn1c(CSc2cccs2)nnc1SCC(=O)Nc1ccc(F)cc1F | > 8 | > 8 |
| OC1CCC(Nc2nn3c(-c4ccc5ccccc5c4)cnc3s2)CC1 (centres undefined) | > 9.05 | > 9.05 |
| CSc1nccc(-c2ccc(S(=O)(=O)N3CCCCC3)s2)n1 | > 9.28 | > 9.28 |
| OCCCNc1nn2c(-c3ccccc3Cl)cnc2s1 | > 10.7 | > 10.7 |
| CC(C)c1ccc(-c2cnc3sc(NCc4cccnc4)nn23)cc1 | > 9.44 | > 9.44 |
| Cc1cccc(Nc2cc3[nH]c(-c4ccc(C(=O)N(C)C)cc4)cc3cn2)c1 | 6.24 | > 10 |
| Nc1ccccc1C(=O)Nc1cc(C(F)(F)F)cc(C(F)(F)F)c1 | > 9.48 | > 9.48 |
| N#CC(Nc1ccc(C(F)(F)F)cc1)c1ccccc1 (centres undefined) | > 11.9 | > 11.9 |
| COc1ccc(-c2cnc3sc(NCCc4ccccn4)nn23)cn1 | > 9.36 | > 9.36 |
| CC(C)(C)c1cc(=O)n(-c2nc3ccc(Cl)cc3s2)[nH]1 | > 10.7 | > 10.7 |
| CC(C)c1ccc(-c2cnc3sc(NCCCO)nn23)cc1 | > 10.4 | > 10.4 |
| CC(C)(Oc1ccc(C#N)cc1)C(=O)O | > 16.1 | > 16.1 |
| O=C1C=CC(=O)N1c1cccc2ccccc12 | > 14.8 | > 14.8 |
| CC(C)CC(N)c1csc(NC(=O)Nc2ccc(F)c(Cl)c2)n1 (centres undefined) | > 9.25 | > 9.25 |
| CC(C)(C)OC(=O)N[C@@H](Cc1ccccc1)c1n[nH]c(=S)n1CC1CCCO1 (some centres undefined) | > 8.16 | > 8.16 |

| SMILES | IC50 [µM] | IC90 [µM] |
| --- | --- | --- |
| O=S(=O)(c1ccccc1)c1ccc(S(=O)(=O)N2CCCC2)s1 | > 9.23 | > 9.23 |
| Cc1cc(NC(=O)c2cc(C(C)(C)C)oc2C)nc(C)n1 | > 11.5 | > 11.5 |
| c1ccc(-c2cnc3sc(NCCc4ccncc4)nn23)cc1 | > 10.3 | > 10.3 |
| COc1cc(OC)cc(C(=O)Nc2nc(C(N)C3CCCCC3)cs2)c1 (centres undefined) | 5.25 | 5.41 |
| O=C(CN1CSCC1=O)Nc1nc2ccccc2[nH]1 | > 10 | > 10 |
| CN(C)c1cccc(-c2cnc3sc(NCc4cccnc4)nn23)c1 | > 9.42 | > 9.42 |
| CN(C)c1cccc(-c2cnc3sc(NCCCO)nn23)c1 | > 10.4 | > 10.4 |
| Cc1c(S(=O)(=O)c2ccc(Cl)cc2)csc1C(=O)N1CC(C)OC(C)C1 (centres undefined) | > 7.97 | > 7.97 |
| OC1CCC(Nc2nn3c(-c4ccc(F)c(Cl)c4)cnc3s2)CC1 (centres undefined) | > 9 | > 9 |
| FC(F)(F)c1cccc(-c2cnc3sc(NCCc4ccncc4)nn23)c1 | > 8.47 | > 8.47 |
| OCCCNc1nn2c(-c3cccc(F)c3)cnc2s1 | > 11.3 | > 11.3 |
| Cc1noc(C)c1S(=O)(=O)N(C)Cc1ccc(-c2ccc(Cl)cc2)o1 | > 10 | > 10 |
| CCCCn1c(C(C)Oc2ccc(Cl)cc2Cl)nc2cc(S(N)(=O)=O)ccc21 (centres undefined) | 0.233 | 0.529 |
| CC(=O)Nc1ccc(C2NC(=O)NC(c3ccccc3)=C2c2nc3ccccc3s2)cc1 (centres undefined) | > 10 | > 10 |
| O=C(NCCNc1ccnc2cc(Cl)ccc12)c1ccccc1F | 2.31 | 8.82 |
| O=C(Nc1cc(C(F)(F)F)cc(C(F)(F)F)c1)Nc1cc(C(F)(F)F)cc(C(F)(F)F)c1 | > 6.81 | > 6.81 |
| O=C(CN1CCN(C(C(=O)Nc2cc(C(F)(F)F)ccc2Cl)c2ccccc2)CC1)NC1CC1 (centres undefined) | 9.79 | > 10 |
| Oc1c(C(Nc2nc3ccccc3s2)c2ccc(OC(F)F)cc2)ccc2cccnc12 (centres undefined) | 5.55 | > 10 |
| CC1(C)N=C(N)N=C(N)N1c1ccc([N+](=O)[O-])cc1 | > 10 | > 10 |
| C=CCNC(=S)N1CCc2c([nH]c3ccccc23)C1C(F)(F)F (centres undefined) | > 9.72 | > 9.72 |
| CCN(CC)S(=O)(=O)c1ccc(C(=O)c2c(C)c(C(=O)C(F)(F)F)c3ccccn23)cc1 | > 10 | > 10 |
| COc1ccc(Nc2ccnc3cc(Cl)ccc23)cc1OC | 7.03 | > 10 |
| CCc1cc2c(Sc3nnc(N)s3)ncnc2s1 | > 11.2 | > 11.2 |
